The text below walks through data of ChEMBL document CHEMBL5584230, “Exploring fluorine-substituted piperidines as potential therapeutics for diabetes mellitus and Alzheimer's diseases” (Eur J Med Chem, 2024).

Molecules are shown by their SMILES. “And” between values parts separate entries of the source, which are not always exact repeats. Equal entries are not always repeated. The source made the active and inactive calls. The rule behind the calls is not given here.

Data set [1] can be described thus: Inhibition of alpha-glucosidase (unknown origin). On the set-up: species or system Homo sapiens.
The nature of data set [2]: Antioxidant activity assessed as ABTS radical scavenging activity. The format is functional.
The test system of data set [3] is Rattus norvegicus. Kind of data set: Anti-diabetic activity in STZ-induced diabetic Sprague-Dawley rat model assessed as reduction in blood glucose level at 9 mg/kg, ip measured at day 21 (reference value: 503.09 +/- 4.15 mg/dl). Conditions: time 21 day. The format is functional.
Data set [4] concerns Rattus norvegicus. Briefly: Anti-diabetic activity in STZ-induced diabetic Sprague-Dawley rat model assessed as increase in body weight at 9 mg/kg, ip measured at day 14. The format is functional, organism-based. Conditions: time 14.0 day.
For data set [5], the target named is Cholinesterase (Homo sapiens, UniProt P06276). Briefly: Inhibition of BchE (unknown origin).
The target of data set [6] is T1, Acetylcholinesterase (Homo sapiens, UniProt P22303). Kind of data set: Inhibition of AChE (unknown origin).
Data set [7] addresses T1, Acetylcholinesterase. Briefly: Inhibition of AChE (unknown origin) using […] assessed as inhibition constant by Lineweaver-Burk plot analysis.
The subject of data set [8] is Rattus norvegicus. Briefly: Anti-diabetic activity in STZ-induced diabetic Sprague-Dawley rat model assessed as reduction in LDL level in plasma at 9 mg/kg, ip (reference value: 138.19 +/- 3.67 mg/dl). The format is functional.
For data set [9], the system named is Rattus norvegicus. Briefly: Anti-diabetic activity in STZ-induced diabetic Sprague-Dawley rat model assessed as reduction in TG level in plasma at 9 mg/kg, ip (reference value: 226.19 +/- 3.97 mg/dl). The format is functional.
Data set [10] has as its system Rattus norvegicus. Kind of data set: Anti-diabetic activity in STZ-induced diabetic Sprague-Dawley rat model assessed as reduction in blood glucose level at 9 mg/kg, ip measured at day 28 (reference value: 501.71 +/- 3.91 mg/dl). The format is functional. Conditions: time 28 day.
The subject of data set [11] is Rattus norvegicus. Briefly: Anti-diabetic activity in STZ-induced diabetic Sprague-Dawley rat model assessed as reduction in blood glucose level at 9 mg/kg, ip measured at day 14 (reference value: 489.44 +/- 4.18 mg/dl). Conditions: time 14 day. The format is functional.
Data set [12] can be described thus: Acute toxicity in BALB/c mouse upto 100 mg/kg, ip administered for 72 hrs and measured after 14 days. The format is organism-based. Conditions: in vivo, 408 h, time 17 day.
The test system of data set [13] is Rattus norvegicus. Briefly: Anti-diabetic activity in STZ-induced diabetic Sprague-Dawley rat model assessed as reduction in blood glucose level at 9 mg/kg, ip measured at day 1 (reference value: 494.14 +/- 4.15 mg/dl). Particulars: time 1 day. The format is functional.
The subject of data set [14] is Rattus norvegicus. Briefly: Anti-diabetic activity in STZ-induced diabetic Sprague-Dawley rat model assessed as reduction in cholesterol level in plasma at 9 mg/kg, ip (reference value: 218 +/- 4.41 mg/dl). The format is functional.
Data set [15] concerns the target T1, Acetylcholinesterase. Kind of data set: Mixed type inhibition of AChE (unknown origin) using […] assessed as effect on Vmax and Km at 1.95 to 7.8 uM by Lineweaver-Burk plot analysis. Conditions: dose 1.95-7.8 µM.
Data set [16] deals with Rattus norvegicus. Briefly: Anti-diabetic activity in STZ-induced diabetic Sprague-Dawley rat model assessed as change in blood glucose level at 9 mg/kg, ip measured for 28 days. The format is functional, organism-based. Conditions: time 28.0 day.
The subject of data set [17] is Rattus norvegicus. Kind of data set: Anti-diabetic activity in STZ-induced diabetic Sprague-Dawley rat model assessed as reduction in blood glucose level at 9 mg/kg, ip measured at day 7 (reference value: 490.69 +/- 3.98 mg/dl). The format is functional. Conditions: time 7 day.
The subject of data set [18] is Rattus norvegicus. Briefly: Anti-diabetic activity in STZ-induced diabetic Sprague-Dawley rat model assessed as reduction in HDL level in plasma at 9 mg/kg, ip (reference value: 21.09 +/- 1.71 mg/dl). The format is functional.
Data set [19] is described as follows: Antioxidant activity assessed as DPPH radical scavenging activity incubated for 30 mins. The format is functional. A general note: DPPH is a stable violet radical that fades when it is reduced.
Data set [20] deals with Rattus norvegicus. Kind of data set: Anti-diabetic activity in STZ-induced diabetic Sprague-Dawley rat model assessed as increase in body weight at 9 mg/kg, ip measured at day 1. The format is functional, organism-based. Conditions: time 1.0 day.
The subject of data set [21] is Rattus norvegicus. Briefly: Anti-diabetic activity in STZ-induced diabetic Sprague-Dawley rat model assessed as increase in body weight at 9 mg/kg, ip measured at day 28. The format is functional, organism-based. Particulars: time 28.0 day.
A short description of data set [22]: Inhibition of alpha-glucosidase (unknown origin) using p-nitrophenyl glucopyranoside as substrate assessed as inhibition constant by Lineweaver-Burk plot analysis. On the set-up: species or system Homo sapiens.
The species named for data set [23] is Homo sapiens. Briefly: Competitive inhibition of alpha-glucosidase (unknown origin) […] using p-nitrophenyl glucopyranoside as substrate assessed as increase in Km with constant Vmax upto 180 uM using varying concentrations of substrate measured for 20 mins by Lineweaver-Burk plot analysis.

Cholinesterase, sequence (P06276 whole entry): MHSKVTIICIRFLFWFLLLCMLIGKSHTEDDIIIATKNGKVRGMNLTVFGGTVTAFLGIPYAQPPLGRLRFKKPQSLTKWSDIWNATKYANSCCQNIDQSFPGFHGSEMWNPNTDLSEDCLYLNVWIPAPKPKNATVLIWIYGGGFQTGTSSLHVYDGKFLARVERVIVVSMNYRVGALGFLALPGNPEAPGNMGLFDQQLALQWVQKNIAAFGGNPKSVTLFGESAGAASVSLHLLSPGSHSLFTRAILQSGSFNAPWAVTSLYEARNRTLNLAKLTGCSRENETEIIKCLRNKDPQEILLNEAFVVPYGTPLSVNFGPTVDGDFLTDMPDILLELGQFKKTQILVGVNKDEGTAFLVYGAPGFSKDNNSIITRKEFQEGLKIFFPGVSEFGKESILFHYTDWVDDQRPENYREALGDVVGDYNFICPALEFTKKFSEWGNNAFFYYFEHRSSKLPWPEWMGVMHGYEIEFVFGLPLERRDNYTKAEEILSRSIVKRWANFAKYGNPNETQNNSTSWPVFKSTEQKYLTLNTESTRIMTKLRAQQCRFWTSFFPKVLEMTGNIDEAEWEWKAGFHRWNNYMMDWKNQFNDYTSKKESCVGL
T1 sequence (P22303 whole entry): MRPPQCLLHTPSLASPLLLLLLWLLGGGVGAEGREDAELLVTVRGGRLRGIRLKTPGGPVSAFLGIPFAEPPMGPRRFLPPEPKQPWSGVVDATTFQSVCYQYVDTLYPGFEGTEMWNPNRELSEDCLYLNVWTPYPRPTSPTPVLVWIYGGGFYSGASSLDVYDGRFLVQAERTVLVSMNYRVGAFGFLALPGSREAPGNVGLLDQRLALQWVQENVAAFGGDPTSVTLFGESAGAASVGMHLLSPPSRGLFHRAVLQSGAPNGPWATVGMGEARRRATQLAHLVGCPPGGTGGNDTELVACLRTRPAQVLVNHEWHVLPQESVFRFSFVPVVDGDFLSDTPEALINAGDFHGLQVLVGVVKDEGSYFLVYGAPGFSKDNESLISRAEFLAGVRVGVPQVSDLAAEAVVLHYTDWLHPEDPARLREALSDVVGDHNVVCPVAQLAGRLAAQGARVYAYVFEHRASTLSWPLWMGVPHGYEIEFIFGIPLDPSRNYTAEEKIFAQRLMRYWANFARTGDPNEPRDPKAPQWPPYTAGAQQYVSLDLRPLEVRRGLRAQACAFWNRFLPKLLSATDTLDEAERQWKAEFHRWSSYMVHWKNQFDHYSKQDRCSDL

Turning to `CCOC(=O)C1=C(Nc2ccc(F)cc2)CC(c2ccc(F)cc2)N(c2ccc(F)cc2)C1c1ccc(F)cc1` (stereo not drawn), the IC50 (usually the concentration at which inhibition is half-maximal) in [1] is 251 nM; in data set [2], 22 nM and 20 nM; in data set [5], 739 nM; in [6] it was 774 nM; in [19], 691 nM and 690 nM. Also, the Activity in [3] is 256.71 mg/dL; in data set [8], 59.16 mg/dL; in [9] it was 97.65 mg/dL; in data set [10], 159.45 mg/dL; in [11], 341.51 mg/dL; in [12] it was “Non-Toxic”. Moreover, the Activity in [13] came out at 501.12 mg/dL; in data set [14], 91.16 mg/dL; in [17] it was 419.93 mg/dL; in [18] it was 27.73 mg/dL. The result in data set [4], in data set [16], in data set [20] and in data set [21] was Active. In addition, in data set [7], the Ki (as a rule, the equilibrium dissociation constant of an inhibitor or competing ligand from its target) was found to be 2050 nM. The inhibition result in data set [15] is “Active”.

For `CCOC(=O)C1=C(Nc2cccc(F)c2)CC(c2ccc(C(F)(F)F)cc2)N(c2cccc(F)c2)C1c1ccc(C(F)(F)F)cc1` (stereo not drawn), the IC50 in data set [1] came out at 220 nM; in [2] it was 629 nM; in data set [5], 1270 nM; in [6] it was 1190 nM; in data set [19], 814 nM. In addition, the Activity in data set [3] was 240.19 mg/dL; in data set [8], 51.22 mg/dL; in [9], 93.71 mg/dL; in data set [10], 152.61 mg/dL; in [11], 334.29 mg/dL; in data set [12], “Non-Toxic”. For the same compound, the Activity is 495.39 mg/dL in data set [13], 78.67 mg/dL in data set [14], 422.69 mg/dL in data set [17] and 31.06 mg/dL in [18]. Also, the outcome in data set [4], in [16], in data set [20] and in data set [21] was Active.

In the case of `CCOC(=O)C1=C(Nc2cccc(F)c2)CC(c2ccc(Cl)cc2)N(c2cccc(F)c2)C1c1ccc(Cl)cc1` (stereo not drawn), the IC50 in data set [1] came to 384 nM; in data set [2], 712 nM; in data set [5], 1700 nM; in data set [6], 1270 nM; in data set [19], 983 nM.

Regarding `CCOC(=O)C1=C(Nc2ccc(F)cc2)CC(c2cccc(F)c2)N(c2ccc(F)cc2)C1c1cccc(F)c1` (stereo not drawn), the IC50 in data set [1] was 457 nM; in [2] it was 562 nM; in [5], 1330 nM; in data set [6] it was 1120 nM; in data set [19], 950 nM.

For the compound `CCOC(=O)C1=C(Nc2ccc(F)cc2)CC(c2ccc(Cl)cc2)N(c2ccc(F)cc2)C1c1ccc(Cl)cc1` (stereo not drawn), the IC50 in data set [1] came to 291 nM; in data set [2], 461 nM; in data set [5], 1020 nM; in data set [6], 916 nM; in data set [19], 1320 nM. Moreover, the Activity is 244.27 mg/dL in data set [3]; 61.39 mg/dL in [8]; 104.2 mg/dL in data set [9]; 167.81 mg/dL in [10]; 349.78 mg/dL in data set [11]; “Non-Toxic” in data set [12]. Also, the Activity in data set [13] came to 498.7 mg/dL; in [14], 87.96 mg/dL; in data set [17], 427.82 mg/dL; in data set [18], 28.09 mg/dL. The outcome in [4], in [16], in data set [20] and in data set [21] was Active.

For `CCOC(=O)C1=C(Nc2cccc(F)c2)CC(c2ccc(F)cc2)N(c2cccc(F)c2)C1c1ccc(F)cc1` (stereo not drawn), the IC50 turned out to be 367 nM in data set [1]; 519 nM in data set [2]; 1990 nM in data set [5]; 1420 nM in data set [6]; 1100 nM in [19].

For the compound `O=C1O[C@H]([C@@H](O)CO)C(O)=C1O` [ASCORBIC ACID], the IC50 in data set [19] worked out at 640 nM.

For the compound `CCOC(=O)C1=C(Nc2ccccc2)CC(c2ccc(F)cc2)N(c2ccccc2)C1c1ccc(F)cc1` (stereo not drawn), the IC50 in data set [1] came out at 473 nM; in data set [2] it was 216 nM; in data set [5], 1280 nM; in data set [6], 1360 nM; in [19], 1050 nM.

Regarding `C[C@H]1O[C@H](O[C@H]2[C@H](O)[C@@H](O)[C@@H](O[C@H]3[C@H](O)[C@@H](O)C(O)O[C@@H]3CO)O[C@@H]2CO)[C@H](O)[C@@H](O)[C@@H]1N[C@H]1C=C(CO)[C@@H](O)[C@H](O)[C@H]1O` (stereo partly drawn) [ACARBOSE], the IC50 in data set [1] amounted to 28700 nM.

On to `Cc1c(C)c2c(c(C)c1O)CCC(C)(C(=O)O)O2` (stereo not drawn) [TROLOX], for which, in data set [2], the IC50 stood at 28 nM.

With `CCOC(=O)C1=C(Nc2ccc(F)cc2)CC(c2ccc(C(F)(F)F)cc2)N(c2ccc(F)cc2)C1c1ccc(C(F)(F)F)cc1` (stereo not drawn), the IC50 in data set [1] came out at 176 nM; in [2] it was 167 nM; in data set [5], 1020 nM; in data set [6] it was 932 nM; in data set [19] it was 633 nM. Further, the Activity was 231.77 mg/dL in data set [3]; 47.51 mg/dL in [8]; 91.96 mg/dL in [9]; 138.56 mg/dL in data set [10]; 320.81 mg/dL in [11]; “Non-Toxic” in [12]. For the same compound, the Activity in [13] is 497.98 mg/dL; in [14], 75.05 mg/dL; in data set [17], 417.55 mg/dL; in data set [18] it was 33.51 mg/dL. The result in data set [4], in data set [16], in data set [20] and in [21] was Active. Besides, the Ki in [22] worked out at 117000 nM. For the same compound, the inhibition entry in data set [23] was “Active”.
